The compounds below were run against T1, human kinase Mps-1 (Homo sapiens, UniProt P33981) (assay: Mps-1 kinase assay (HTRF)).
T1 construct: N-terminally GST-tagged human full length recombinant Mps-1 kinase; GST (N); purchased Invitrogen, Karslruhe, Germany PV4071
T1 sequence (P33981 1-857): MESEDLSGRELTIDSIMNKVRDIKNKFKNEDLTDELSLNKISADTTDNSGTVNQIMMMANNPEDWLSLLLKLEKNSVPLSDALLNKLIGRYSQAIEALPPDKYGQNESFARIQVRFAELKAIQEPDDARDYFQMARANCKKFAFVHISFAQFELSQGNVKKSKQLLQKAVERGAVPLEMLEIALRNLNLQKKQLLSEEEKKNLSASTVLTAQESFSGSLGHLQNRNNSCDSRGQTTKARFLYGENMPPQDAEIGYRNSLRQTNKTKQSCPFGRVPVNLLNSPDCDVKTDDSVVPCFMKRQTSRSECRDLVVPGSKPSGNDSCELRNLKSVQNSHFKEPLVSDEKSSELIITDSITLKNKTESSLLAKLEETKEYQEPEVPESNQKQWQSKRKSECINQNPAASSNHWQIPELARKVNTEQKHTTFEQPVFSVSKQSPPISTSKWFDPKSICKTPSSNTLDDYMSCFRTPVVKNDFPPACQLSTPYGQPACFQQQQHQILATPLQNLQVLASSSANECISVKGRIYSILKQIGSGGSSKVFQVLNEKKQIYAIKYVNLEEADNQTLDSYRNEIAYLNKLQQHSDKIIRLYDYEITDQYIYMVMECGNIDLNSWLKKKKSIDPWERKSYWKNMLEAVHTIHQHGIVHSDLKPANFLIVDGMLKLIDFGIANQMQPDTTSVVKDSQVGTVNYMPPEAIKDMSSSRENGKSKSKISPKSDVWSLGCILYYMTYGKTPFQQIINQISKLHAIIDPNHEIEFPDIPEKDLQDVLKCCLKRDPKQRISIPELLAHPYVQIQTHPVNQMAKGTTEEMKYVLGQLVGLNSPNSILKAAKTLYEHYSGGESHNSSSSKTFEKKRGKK
Type: biochemical

Row | Compound | IC50
1 | CCOc1cc(C(=O)NC(C)(C)C)ccc1Nc1nc2ccc(-c3ccc(C(=O)NCC(F)(F)F)cc3)cn2n1 [Example 11.030, N-tert-butyl-3-ethoxy-4-[(6-{4-[(2,2,2-trifluoroethyl)carbamoyl]phenyl}[1,2,4]triazolo [1,5-a]pyridin-2-yl)amino]benzamide] | ≤ 1 nM
2 | C[C@@H](NC(=O)c1cccc(-c2ccc3nc(Nc4ccccc4C#N)nn3c2)c1)C(F)(F)F [Example 11.040, 3-{2-[(2-cyanophenyl)amino][1,2,4]triazolo[1,5-a]pyridin-6-yl}-N-[(2R)-1,1,1-trifluoropropan-2-yl]benzamide] | 1.27 nM
3 | COc1cccnc1Nc1nc2ccc(-c3cccc(NC(C)=O)c3)cn2n1 [Example 2.11, N-(3-{2-[(3-methoxypyridin-2-yl)amino][1,2,4]triazolo [1,5-a]pyridin-6-yl}phenyl)acetamide] | 3500 nM
4 | CC(C)NC(=O)c1cccc(-c2ccc3nc(Nc4ccccc4C#N)nn3c2)c1 [Example 9.4, 3-{2-[(2-cyanophenyl)amino][1,2,4]triazolo[1,5-a]pyridin-6-yl}-N-(propan-2-yl)benzamide] | 8.8 nM
5 | COc1ccc(F)cc1Nc1nc2ccc(-c3cc(C)c(O)c(C)c3)cn2n1 [Example 1.6, 4-{2-[(5-fluoro-2-methoxyphenyl)amino] [1,2,4]triazolo[1,5-a]pyridin-6-yl}-2,6-dimethylphenol] | 150 nM
6 | COc1cc(C(=O)NCC(C)(C)O)ccc1Nc1nc2ccc(-c3ccc(C(=O)NCC(F)(F)F)cc3)cn2n1 [Example 11.016, N-(2-hydroxy-2-methylpropyl)-3-methoxy-4-[(6-{4-[(2,2,2-trifluoroethyl)carbamoyl]phenyl}[1,2,4]triazolo [1,5-a]pyridin-2-yl)amino]benzamide] | 1.29 nM
7 | COc1cc(C(=O)NC(C)(C)CO)ccc1Nc1nc2ccc(-c3ccc(C(=O)NCC(F)(F)F)c(Cl)c3)cn2n1 [Example 11.026, 2-chloro-4-[2-({4-[(1-hydroxy-2-methylpropan-2-yl)carbamoyl]-2-methoxyphenyl}amino)[1,2,4]triazolo[1,5-a]pyridin-6-yl]-N-(2,2,2-trifluoroethyl)benzamide] | 4.08 nM
8 | Cc1cccc(-c2ccc3nc(Nc4ccccc4C#N)nn3c2)c1 [Example 3.3, 2-{[6-(3-methylphenyl)[1,2,4]triazolo[1,5-a]pyridin-2-yl]amino}benzonitrile] | 630 nM
9 | CCCNC(=O)c1cccc(-c2ccc3nc(Nc4ccccc4C#N)nn3c2)c1 [Example 11.052, 3-{2-[(2-cyanophenyl)amino][1,2,4]triazolo[1,5-a]pyridin-6-yl}-N-propylbenzamide] | 6.37 nM
10 | CC(C)(CO)NC(=O)c1cccc(-c2ccc3nc(Nc4ccccc4C#N)nn3c2)c1 [Example 11.046, 3-{2-[(2-cyanophenyl)amino][1,2,4]triazolo[1,5-a]pyridin-6-yl}-N-(1-hydroxy-2-methylpropan-2-yl)benzamide] | 3.29 nM
11 | CC(C)(C)NC(=O)c1cccc(-c2ccc3nc(Nc4ccccc4C#N)nn3c2)c1F [Example 11.065, N-tert-butyl-3-{2-[(2-cyanophenyl)amino][1,2,4]triazolo[1,5-a]pyridin-6-yl}-2-fluorobenzamide] | 18.2 nM
12 | CCOc1cc(C(=O)NCC(C)(C)O)ccc1Nc1nc2ccc(-c3ccc(C(=O)NCC(C)C)cc3)cn2n1 [Example 11.036, 3-ethoxy-N-(2-hydroxy-2-methylpropyl)-4-[(6-{4-[(2-methylpropyl)carbamoyl]phenyl}[1,2,4]triazolo [1,5-a]pyridin-2-yl)amino]benzamide] | 2.58 nM
13 | COc1cc(C#N)ccc1Nc1nc2ccc(-c3cccc(NC(C)=O)c3)cn2n1 [Example 2.12, N-(3-{2-[(4-cyano-2-methoxyphenyl)amino] [1,2,4]triazolo[1,5-a]pyridin-6-yl}phenyl)acetamide] | 200 nM
14 | N#Cc1ccccc1Nc1nc2ccc(-c3cccc(C(=O)NCCC(F)(F)F)c3)cn2n1 [Example 11.048, 3-{2-[(2-cyanophenyl)amino][1,2,4]triazolo[1,5-a]pyridin-6-yl}-N-(3,3,3-trifluoropropyl)benzamide] | 3.95 nM
15 | COc1ccccc1Nc1nc2ccc(-c3ccc(N)cc3)cn2n1 [Example 5.2, 6-(4-aminophenyl)-N-(2-methoxyphenyl)[1,2,4]triazolo[1,5-a]pyridin-2-amine] | 72 nM

Source: patent US20130121994A1, “TRIAZOLOPYRIDINE DERIVATIVES” (BAYER INTELLECTUAL PROPERTY GMBH, priority 2009, published 2013)
